# Legend:
# Test in all cases: relative viability (nuclei count vs DMSO), 5 days (fraction); higher = more cells survive
# Mirin + Palbociclib = compound: N=C1NC(=O)/C(=C/c2ccc(O)cc2)S1 [Mirin] + CC(=O)c1c(C)c2cnc(Nc3ccc(N4CCNCC4)cn3)nc2n(C2CCCC2)c1=O [Palbociclib] (partner 0.5 µM)
# Summary of the method: (§1)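 Each reported value is a median over duplicate plates. It expresses relative viability: treated-well nuclei count divided by vehicle-well nuclei count. Lung cancer cell lines in 1536-well plates were dosed by pin tool a day after seeding, alone with one drug or with a fixed anchor-drug dose plus five library-drug doses (not always all listed) in √10 steps, and nuclei were counted after 5 days.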
# Mirin + Luminespib = compound: N=C1NC(=O)/C(=C/c2ccc(O)cc2)S1 [Mirin] + CCNC(=O)c1noc(-c2cc(C(C)C)c(O)cc2O)c1-c1ccc(CN2CCOCC2)cc1 [Luminespib] (partner 0.01 µM)
# Summary of the method: as §1
# Mirin + Lapatinib = compound: N=C1NC(=O)/C(=C/c2ccc(O)cc2)S1 [Mirin] + CS(=O)(=O)CCNCc1ccc(-c2ccc3ncnc(Nc4ccc(OCc5cccc(F)c5)c(Cl)c4)c3c2)o1 [Lapatinib] (partner 2 µM)
# Summary of the method: as §1
# [1] = compound: CCn1c(-c2nonc2N)nc2cnc(Oc3cccc(NC(=O)c4ccc(OCCN5CCOCC5)cc4)c3)cc21 + CC1(C)CCC(c2ccc(Cl)cc2)=C(CN2CCN(c3ccc(C(=O)NS(=O)(=O)c4ccc(N[C@H](CCN5CCOCC5)CSc5ccccc5)c(S(=O)(=O)C(F)(F)F)c4)cc3)CC2)C1 [Navitoclax] (partner 0.5 µM)
# Summary of the method: as §1
Cell Line,relative viability (Mirin + Palbociclib; first compound 0.25 µM),relative viability (Mirin + Palbociclib; first compound 0.7906 µM),relative viability (Mirin + Palbociclib; first compound 2.5 µM),relative viability (Mirin + Palbociclib; first compound 7.906 µM),relative viability (Mirin + Palbociclib; first compound 25 µM),relative viability (Mirin + Luminespib; first compound 0.25 µM),relative viability (Mirin + Luminespib; first compound 0.7906 µM),relative viability (Mirin + Luminespib; first compound 2.5 µM),relative viability (Mirin + Luminespib; first compound 7.906 µM),relative viability (Mirin + Luminespib; first compound 25 µM),relative viability (Mirin + Lapatinib; first compound 0.25 µM),relative viability (Mirin + Lapatinib; first compound 0.7906 µM),relative viability (Mirin + Lapatinib; first compound 2.5 µM),relative viability (Mirin + Lapatinib; first compound 7.906 µM),relative viability (Mirin + Lapatinib; first compound 25 µM),relative viability ([1]; first compound 0.04 µM),relative viability ([1]; first compound 0.1265 µM),relative viability ([1]; first compound 0.4 µM),relative viability ([1]; first compound 1.265 µM),relative viability ([1]; first compound 4 µM)
201T,0.365,0.413,0.353,0.348,0.395,1.05,1.11,1.08,1.09,1.14,0.98,0.964,1.01,1.09,1.08,1.16,1.19,1.18,1.21,1.14
A549,–,–,–,–,–,–,–,–,–,–,0.914,1.15,1.04,1.08,0.598,1.37,1.08,0.828,0.0937,0.0515
A-427,0.494,0.5,0.552,0.516,0.504,0.756,1.01,0.905,0.89,0.952,1.12,–,1.17,1.05,1.08,1.04,1.07,0.887,0.964,1.01
ABC-1,0.548,0.693,0.573,0.728,0.482,0.746,0.879,0.73,0.534,0.341,1.04,1.33,1.17,1.16,0.95,–,–,–,–,–
BEN,0.485,0.468,0.423,0.424,0.426,0.484,0.593,0.503,0.315,0.217,0.507,0.942,0.721,0.656,0.457,0.0536,0.0704,0.0589,0.0468,0.0489
CAL-12T,0.265,0.193,0.508,0.408,0.339,0.364,–,0.369,0.696,0.548,0.702,–,0.92,–,0.238,1.83,1.46,1.61,1.35,0.955
COR-L23,0.369,0.299,0.245,0.268,0.341,0.763,0.726,0.609,0.626,0.499,0.796,1.08,0.907,0.999,0.914,1.04,0.817,0.59,0.172,0.157
COR-L 105,0.426,0.415,0.376,0.432,0.42,0.741,0.852,0.692,0.51,0.544,0.346,0.274,0.392,0.367,0.306,0.618,0.762,0.522,0.262,0.355
Calu-6,–,–,–,–,–,–,–,–,–,–,1.11,1.12,1.06,1.01,0.983,0.835,0.759,0.64,0.353,0.306

# — the supplement of paper PMC10307832
